Test results published in PubChem BioAssay (NCI).
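Five compound concentrations were applied to cells in 96-well plates for 48 hours; endpoints were derived by simple linear interpolation of the resulting dose-response curve. At the TGI there is no net growth.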

Legend:
Assay in all cases: growth of human tumour cells (NCI), 48 h
A498 renal = system: A498 renal
A549 NSCLC = system: A549 NSCLC
ACHN renal = system: ACHN renal
CAKI-1 renal = system: CAKI-1 renal
CCRF-CEM leukemia = system: CCRF-CEM leukemia
COLO 205 colon = system: COLO 205 colon
DU-145 prostate = system: DU-145 prostate
EKVX NSCLC = system: EKVX NSCLC
HCC-2998 colon = system: HCC-2998 colon
HCT-116 colon = system: HCT-116 colon
HCT-15 colon = system: HCT-15 colon
HL-60(TB) leukemia = system: HL-60(TB) leukemia
HOP-62 NSCLC = system: HOP-62 NSCLC
HS 578T breast = system: HS 578T breast
HT29 colon = system: HT29 colon
IGROV1 ovarian = system: IGROV1 ovarian
K-562 leukemia = system: K-562 leukemia
KM12 colon = system: KM12 colon
LOX IMVI melanoma = system: LOX IMVI melanoma
M14 melanoma = system: M14 melanoma
MALME-3M melanoma = system: MALME-3M melanoma
MCF7 breast = system: MCF7 breast
MDA-MB-231 breast = system: MDA-MB-231 breast
MDA-MB-435 = system: MDA-MB-435
MDA-N = system: MDA-N
MOLT-4 leukemia = system: MOLT-4 leukemia
NCI-H226 lung = system: NCI-H226 lung
NCI-H460 lung = system: NCI-H460 lung
NCI-H522 lung = system: NCI-H522 lung
NCI/ADR-RES ovarian = system: NCI/ADR-RES ovarian
OVCAR-3 ovarian = system: OVCAR-3 ovarian
OVCAR-4 ovarian = system: OVCAR-4 ovarian
OVCAR-5 ovarian = system: OVCAR-5 ovarian
OVCAR-8 ovarian = system: OVCAR-8 ovarian
PC-3 prostate = system: PC-3 prostate
RPMI-8226 leukemia = system: RPMI-8226 leukemia
RXF 393 renal = system: RXF 393 renal
SF-268 CNS = system: SF-268 CNS
SF-295 CNS = system: SF-295 CNS
SF-539 CNS = system: SF-539 CNS
SK-MEL-2 melanoma = system: SK-MEL-2 melanoma
SK-MEL-28 melanoma = system: SK-MEL-28 melanoma
SK-MEL-5 melanoma = system: SK-MEL-5 melanoma
SK-OV-3 ovarian = system: SK-OV-3 ovarian
SN12C renal = system: SN12C renal
SNB-19 CNS = system: SNB-19 CNS
SNB-75 CNS = system: SNB-75 CNS
SR leukemia = system: SR leukemia
SW-620 colon = system: SW-620 colon
T-47D breast = system: T-47D breast
TK-10 renal = system: TK-10 renal
UACC-62 melanoma = system: UACC-62 melanoma
UO-31 renal = system: UO-31 renal

Measured: TGI

COc1ccc(NC2=NCCO2)c2ccccc12
> 10 µM: all assays above
